Data published in patent US11827616B2, “Heterocyclic compounds as pesticides” (Discovery Purchaser Corporation, priority 2018, dated 2023).
Like-named read-outs stand apart in the source and are kept apart here.

Columns and labels:
Format in all cases: in vivo
Tetranychus urticae = Tetranychus urticae spray test, OP-resistant; details: application rate 500 g/ha; after 6 days
In short: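 Bean leaf discs carrying all stages of OP-resistant Tetranychus urticae were sprayed with compound in acetone/dimethylformamide diluted in water containing alkylaryl polyglycol ether emulsifier (1000 ppm). Mortality scored after 6 days as % efficacy (100% = all mites killed).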

Spodoptera frugiperda = Spodoptera frugiperda spray test; details: for pest or weed control at 500 g/ha: Spodoptera frugiperda, 168 h, read-out: efficacy
In short: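 Maize leaf discs sprayed with compound formulated in acetone/dimethylformamide and diluted in water with 1000 ppm alkylaryl polyglycol ether emulsifier. Once dry, discs are infested with fall armyworm caterpillars. Efficacy in % read after 7 days: 100% all caterpillars killed, 0% none killed.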

Phaedon cochleariae = Phaedon cochleariae spray test; details: for pest or weed control at 500 g/ha: Phaedon cochleariae, 168 h, read-out: efficacy
In short: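 Chinese cabbage leaf discs sprayed with compound formulated in acetone/DMF and water with 1000 ppm emulsifier, then infested with mustard beetle larvae once dry. Percent larval kill scored after 7 days (100% = all dead, 0% = none).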

Myzus persicae = Myzus persicae spray test; details: after 5 days
Description: Myzus persicae—Spray Test
Solvent: 78 parts by weight of acetone • • 1.5 parts by weight of dimethylformamide
(§1) Emulsifier: alkylaryl polyglycol ether
(§2) To produce a suitable active compound formulation, 1 part by weight of active compound is dissolved with the specified parts by weight of solvent and made up to the desired concentration with water containing an emulsifier concentration of 1000 ppm. To produce further test concentrations, the formulation is diluted with emulsifier-containing water.
Discs of Chinese cabbage leaves (Brassica pekinensis) infested by all stages of the green peach aphid (Myzus persicae) are sprayed with an active compound formulation of the desired concentration.
After 5 days, the efficacy in % is determined. 100% means that all the aphids have been killed; 0% means that no aphids have been killed.

Ctenocephalides felis [1] = test: Ctenocephalides felis oral test; details: application rate 100 ppm in citrated cattle blood; after 2 days
Description: Ctenocephalides felis—Oral Test
(§3) Solvent: dimethyl sulfoxide
To produce a suitable active compound formulation, 10 mg of active compound are mixed with 0.5 ml of dimethyl sulfoxide. Dilution with citrated cattle blood gives the desired concentration.
About 20 unfed adult cat fleas (Ctenocephalides felis) are placed into a chamber which is closed at the top and bottom with gauze. A metal cylinder whose bottom end is closed with parafilm is placed onto the chamber. The cylinder contains the blood/active compound formulation, which can be imbibed by the fleas through the parafilm membrane.
After 2 days, the kill in % is determined. 100% means that all of the fleas have been killed; 0% means that none of the fleas have been killed.

Lucilia cuprina = Lucilia cuprina test; details: application rate 100 ppm; L1 larvae; after 2 days
In short: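 About 20 first-instar larvae were placed in vessels of minced horsemeat with compound at the desired concentration. Compound was dissolved in DMSO and diluted in water. Percent kill scored after 2 days.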

Boophilus microplus = Boophilus microplus injection test; details: for pest or weed control at 0.02 mg: Rhipicephalus microplus, 168 h
In short: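 Compound dissolved in DMSO; 1 μl injected into the abdomen of engorged adult female ticks, five per group, kept in climate-controlled room. Efficacy scored after 7 days from fertile egg laying (100% = no fertile eggs; 0% = all fertile), with unclear eggs held ~42 days until hatching.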

[2] = tested on: cattle ticks (Boophilus microplus) Parkhurst strain, SP-resistant; test: Boophilus microplus dip test; details: application rate 100 ppm, after 7 days
Description: Boophilus microplus—Dip Test
Test animals: cattle ticks (Boophilus microplus) Parkhurst strain, SP-resistant
as §3
10 mg of active compound are dissolved in 0.5 ml of dimethyl sulfoxide. To produce a suitable formulation, the active compound solution is diluted with water to the concentration desired in each case.
This active compound formulation is pipetted into tubes. 8-10 engorged adult female cattle ticks (Boophilus microplus) are transferred into a further tube with holes. The tube is immersed into the active compound formulation, and all the ticks are completely wetted. After the liquid has run out, the ticks are transferred on filter disks into plastic dishes and stored in a climate-controlled room.
Efficacy is assessed after 7 days by laying of fertile eggs. Eggs which are not visibly fertile are stored in a climate-controlled cabinet until the larvae hatch after about 42 days. An efficacy of 100% means that none of the ticks has laid any fertile eggs; 0% means that all the eggs are fertile.

Rhipicephalus sanguineus = Rhipicephalus sanguineus in vitro contact test with adult brown dog ticks; details: application rate 5 μg/cm^2 (=500 g/ha); after 48 h
In short: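 Glass tubes coated with compound in acetone (900 ppm solution giving 5 μg/cm^2), then 5-10 adult ticks held in the dark at room temperature and ambient humidity. At 48 h, ticks placed on a 45-50° C. hotplate for up to 5 min; motionless or uncoordinated ones scored dead/moribund, giving % efficacy.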

Ctenocephalides felis [3] = test: Ctenocephalides felis in vitro contact test with adult cat fleas; details: application rate 5 μg/cm^2 (=500 g/ha); after 48 h
In short: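 Glass tubes coated with acetone solutions of compound (900 ppm giving 5 μg/cm^2), dried, then held 5-10 adult cat fleas at room temperature and ambient humidity. After 48 h, dead or moribund fleas were scored; efficacy expressed as percent affected.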

Nilaparvata lugens = Nilaparvata lugens test; details: application rate 500 g/ha; after 4 days
Description: Solvent: 78.0 parts by weight of acetone • • 1.5 parts by weight of dimethylformamide
as §1, §2
Rice plants (Oryza sativa) are sprayed with the active compound formulation of the desired concentration and then infected with the brown planthopper (Nilaparvata lugens).
After 4 days, the efficacy in % is determined. 100% means that all of the planthoppers have been killed; 0% means that none of the planthoppers have been killed.

[4] = tested on: Anopheles gambiae strain RSPH (homozygot kdr); test: Anopheles test (ANPHGB surface treatment); details: read-out: efficacy (mortality in %)
Description: Anopheles Test (ANPHGB Surface Treatment)
(§4) Solvent: acetone+2000 ppm rapeseed oil methyl ester (RME)
(§5) To produce an appropriate active compound formulation, the active compound is dissolved in the solvent (2 mg/ml). The active compound formulation is pipetted onto a glazed tile and, after it has dried off, adult mosquitoes of the species Anopheles gambiae strain RSPH (homozygot kdr) are placed onto the treated tile. The exposure time is 30 minutes.
(§6) 24 hours after contact with the treated surface, mortality in % is determined. 100% means that all mosquitoes have been killed; 0% means that none of the mosquitoes have been killed.

[5] = tested on: Anopheles funestus strain FUMOZ-R; test: Anopheles test (ANPHFU surface treatment); details: read-out: efficacy (mortality in %)
Description: Anopheles Test (ANPHFU Surface Treatment)
as §4
as §5, with “funestus” for “gambiae”, “FUMOZ-R (Hunt et al., Med Vet Entomol. 2005 Sep.; 19 (3):271-5)” for “RSPH (homozygot kdr)”
as §6

[6] = tested on: Aedes aegypti strain MONHEIM; test: Aedes test (AEDSAE surface treatment); details: read-out: efficacy (mortality in %)
Description: Aedes Test (AEDSAE Surface Treatment)
as §4
as §5, with “Aedes aegypti” for “Anopheles gambiae”, “MONHEIM” for “RSPH (homozygot kdr)”, “minutes. 24 hours after contact with the treated surface, mortality in % is determined. 100% means that all mosquitoes have been killed; 0% means that none of the mosquitoes have been killed.” for “minutes.”

[7] = application rate 500 g/ha, after 7 days
[8] = application rate 20 μg/animal, after 7 days
[9] = application rate 20 mg/m^2, exposure 30 minutes, 24 hours after contact
[10] = application rate 100 mg/m^2, exposure 30 minutes, 24 hours after contact

Row | Compound | efficacy (Tetranychus urticae) [%] | efficacy (Spodoptera frugiperda; [7]) [%] | efficacy (Phaedon cochleariae; [7]) [%] | efficacy (Myzus persicae; application rate 500 g/ha) [%] | efficacy (kill in %) (Ctenocephalides felis [1]) [%] | efficacy (kill in %) (Lucilia cuprina) [%] | efficacy (laying of fertile eggs) (Boophilus microplus; [8]) [%] | efficacy (laying of fertile eggs) [2] [%] | efficacy (ticks dead or moribund) (Rhipicephalus sanguineus) [%] | efficacy (fleas dead or moribund) (Ctenocephalides felis [3]) [%] | other results
1 | CON(C)CCOc1ccc(COc2ccc(F)c(-c3cccc(OC(F)(F)F)c3)c2)cn1 [Example 10] | 100 | 100 | 100 | 90 |  |  |  |  |  |  | 
2 | CON(C)CCOc1cnc(COc2ccc(Cl)c3ccccc23)c(F)c1 [Example 19] |  | 100 | 100 |  | 80 | 98 | 100 | 100 | 100 | 100 | 
3 | CON(C)CCOc1cnc(COc2ccc3oc4ccccc4c3c2)c(F)c1 [Example 20] |  | 100 | 100 |  | 95 | 100 | 100 |  | 100 | 100 | efficacy (Nilaparvata lugens): 100%
4 | CON(C)CCOc1cnc(COc2cccc3c(Cl)c(Cl)ccc23)c(F)c1 [Example 22, 2-[(6-{[(5,6-dichloro-1-naphthyl)oxy]methyl}-5-fluoropyridin-3-yl)oxy]-N-methoxy-N-methylethanamine] |  |  |  |  | 90 | 100 |  |  | 100 | 100 | mortality at 20 mg/m2 [4, 9]: 80 to 100%; mortality at 100 mg/m2 [4, 10]: 80 to 100%; pest or weed control at 500 g/ha (Spodoptera frugiperda; [7]): 100%; mortality at 20 mg/m2 [5, 9]: 80 to 100%; mortality at 100 mg/m2 [5, 10]: 80 to 100%; pest or weed control at 0.02 mg (Boophilus microplus; application rate 20 μg/animal, after 7 days, read-out: efficacy (laying of fertile eggs)): 100%; mortality at 20 mg/m2 [6, 9]: 80 to 100%; mortality at 100 mg/m2 [6, 10]: 80 to 100%; pest or weed control at 500 g/ha (Phaedon cochleariae; [7]): 100%; efficacy (Nilaparvata lugens): 90%
5 | CON(C)CCOc1cnc(COc2ccc3sc4ccccc4c3c2)c(F)c1 [Example 23] | 90 | 100 | 100 |  |  | 100 | 100 | 80 | 100 | 100 | 
6 | CC(C)N(CCOc1cnc(COc2cccc3c(Cl)c(Cl)ccc23)c(F)c1)C(C)C [Example 39] |  | 100 | 100 |  |  |  | 90 |  |  | 100 | efficacy (Myzus persicae; application rate 100 g/ha): 90%
7 | CON(C)CCOc1cnc(COc2ccc(Cl)c(-c3cccc(OC(F)(F)F)c3)c2)c(F)c1 [Example 48] | 100 | 100 | 100 | 90 |  | 100 | 100 |  | 100 | 100 | 
8 | CON(C)CCOc1cnc(COc2cccc(-c3cccc(OC(F)(F)F)c3)c2)c(F)c1 [Example 53] | 100 | 100 | 100 | 90 |  | 100 | 100 |  | 100 | 100 | efficacy (Nilaparvata lugens): 100%
9 | CCOc1cc(OCc2ncc(OCCN(C)OC)cc2F)ccc1Cl [Example 54] | 100 | 100 | 100 |  |  | 100 | 100 | 100 | 100 | 100 | 
10 | CON(C)CCOc1cnc(COc2ccc(F)c(-c3cccc(F)c3)c2)c(F)c1 [Example 55] | 100 | 100 | 83 |  | 90 | 100 | 100 | 90 | 100 | 100 | 
11 | CON(C)CCOc1cnc(COc2ccc(F)c(-c3cccc(OC(F)(F)F)c3)c2)c(C)c1 [Example 59] | 100 | 100 | 83 | 90 |  | 100 | 100 |  | 100 | 100 | 
12 | CON(C)CCOc1cnc(COc2ccc(Cl)c3ccccc23)nc1 [Example 99, 2-[(2-{[(4-chloro-1-naphthyl)oxy]methyl}pyrimidin-5-yl)oxy]-N-methoxy-N-methylethanamine] |  |  |  |  |  | 100 |  | 100 | 100 | 100 | mortality at 20 mg/m2 [4]: 80 to 100%; pest or weed control at 500 g/ha (Spodoptera frugiperda): 100%; mortality at 20 mg/m2 [5]: 80 to 100%; pest or weed control at 0.02 mg (Boophilus microplus; read-out: efficacy (laying of fertile eggs), application rate 20 μg/animal, after 7 days): 100%; mortality at 20 mg/m2 [6]: 80 to 100%; pest or weed control at 500 g/ha (Phaedon cochleariae): 100%
